In the oligonucleotide strings, read from the 5' end, every base follows the letter of its sugar. An asterisk marks phosphorothioate; unmarked linkages are phosphodiester. Other units and linkages are bracketed, terminal groups are in braces. A string of capitals states the bases alone. d = 2'-deoxy (DNA)
How the values were obtained:
[1] = tested on: human PBMC; experiment: Induction of IL-10 from healthy human PBMC (ELISpot); type: cell-based; conditions: PBMC from 5 healthy individuals, 48 hours
Description: Whole blood was obtained from healthy blood donors. PBMCs were prepared from 30 ml whole blood according to the following protocol:
30 ml blood was transferred directly into heparinized tubes. All blood was transferred into one 50 ml Falcon tube and PBS added up to 50 ml. 15 ml Ficoll (17-1440-03, obtained from Amersham Bioscience AB, Uppsala) was then added into two falcon tubes (50 ml). The PBS-treated blood was then carefully added on the top of to Ficoll, 25 ml to each tube. The tubes were then centrifuged 25 min at 1700 RPM at RT (20° C.).
RPMIc medium was prepared under sterile conditions, using a 0.22 uM filter. (RPMIc denotes a RPMI 1640 culture medium (R0883, Sigma) supplemented with 5% heat-inactivated (56° C.,1 h) FCS 1.5 mM L-glutamine (G7513, Sigma), 100 U/ml penicillin and 100 ug/ml streptomycin, PEST (P0781, Sigma), hepes (H0887, Sigma), and gentamycin (G1272, Sigma)).
The interphase was carefully pipetted from the two tubes into 2x 50mi Falcon tubes. PBS was added up to 50 ml in each tube, and the tubes centrifuged for 10 min at 1700 RPM (4° C.).
The supernatant was discarded, and PBS added to 30 ml, whereupon the tubes were centrifuged at 10 min at 1500 RPM (4° C.). Again, the supernatant was discarded, 10 ml PBS added, and the pellets from the two falcon tubes pooled.
The cells were counted and left in PBS, then centrifuged at 1200 RPM, 10 min. Medium was then added to obtain the concentration of interest, and the cells counted (16 squares)×3. The mean value was calculated and multiplied with the dilution factor×10^4=cells/ml. Diluting the cells to 10 million/ml will result in 500.000 cells/50 ul medium, 6 million/ml will be 300.000/50 ul medium.
Elispot assays where performed according to the manufactures recommended guidelines (MabTech) and the plates were analyzed using an AID ELISpot reader system (Autoimmun Diagnostika GmbH, Strassberg, Germany).
Approximately 500,000 PBMC cells per well, derived from blood from healthy human donors, were incubated for 48 hours in the presence of the different oligonucleotides. Specifically, SEQ.ID.NO 1, SEQ.ID.NO 2, SEQ.ID.NO 6 and SEQ.ID.NO 8. Following incubation, the wells were developed according to the kit supplier's recommendations and the average number of positive cells producing IL-10 per well were counted using an AID ELISpot reader system, (Autoimmun Diagnostika GmbH, Strassberg, Germany).

[2] = tested on: human PBMC from steroid resistant asthmatics or healthy donors; experiment: Cytokine production in PBMC from steroid resistant asthmatics or healthy donors (Cytometric Bead Array); type: cell-based; conditions: 25 μM or 100 μM, 48 hours, CBA
Description: Blood samples were obtained from healthy volunteers or steroid resistant asthmatics. PBMC were isolated by density gradient centrifugation using Ficoll-Paque Plus (Pharmacia Biotech, Uppsala, Sweden), washed three times in buffered saline solution (PBS), and re-suspended in RPMI 1640 (Sigma) containing 10% heat inactivated fetal calf serum (FCS) (Life Technologies), 100 U/mL penicillin 100 μg/mL streptomycin (Life Technologies), 2 mM L-glutamine (Sigma), gentamycin (Sigma) and 5 mM Hepes (Gibco, Life Technologies). Cells were counted using 0.4% Trypan blue solution (Sigma Aldrich)
PBMC, prepared as previously described were, directly after seeding, stimulated with SEQ.ID.NO. 1. (25 μM and 100 μM) in the presence or absence of Dex (10^−6, 10^−8 and 10^−10 M) into a 96-well flat bottomed cell culture plate at 500 000 cells/well in RPMIc. As control ODN, 1 μM of IDX0910 was used. After treatment, cells were incubated in a humified incubator at 5% carbon dioxide and 37° C. for 48 hrs. Supernatants were saved and stored at −20° C. prior to cytokine level determination.
The supernatants were kept at −20° C. until analyzed. IFN-, IL-6, IL-10, IL-2, IL-4 and TNF-alpha were measured utilizing the Cytometric Bead Array (CBA) from Becton Dickenson (BD), according to the manufacturer's protocol. The lower detection limit was 20 pg/ml for each cytokine. The FACSCalibur was used for all CBA analysis for this study.
PBMCs were incubated in medium (basal) or with 25 μM (hatched bars) or 100 μM (dotted bars) of the CpG containing SEQ.ID.NO.1 for 48 hours before detection of IL-6 in supernatant. Each bar of the histogram represents average amount of IL-6 production from 9 healthy donors and 9 steroid resistant asthmatics. Experiments were performed in triplicate for each blood donor. Background levels of IL-6 (medium) were subtracted from each group of samples.

5′-G*G*A*ACAGTTCGTCCAT*G*G*C-3′ (DNA dG*dG*dA*dAdCdAdGdTdTdCdGdTdCdCdAdT*dG*dG*dC) [SEQ.ID.NO 1, (Hu p65)AS, CpG-containing ODN; * marks phosphorothioate linkage, others phosphodiester]
concentration from which IL-10 producing cells are induced [1]: around 5 uM
induction of IL-10 producing cells ([1]; FIG. 11): clear potential to induce IL-10 producing cells
IL-6 induced, steroid resistant PBMCs compared to healthy PBMCs ([2]; 9 healthy donors and 9 steroid resistant asthmatics): significantly lower
IL-10 induced, steroid resistant PBMCs compared to healthy PBMCs [2]: significantly lower
interferon-gamma induced, steroid resistant PBMCs compared to healthy PBMCs [2]: significantly lower

From patent publication US8895522B2, “Composition and method for the prevention, treatment and/or alleviation of an inflammatory disease” (Index Pharmaceuticals AB, priority 2005, dated 2014)
